Tests used:
[1] = biological target: T1, BpS1_11 (Bacple_01701) (Phocaeicola plebeius, UniProt B5CYA4); assay: 1H NMR of products; format: biochemical; details: desulfation of the non-reducing-end L-galactose 6-sulfate
T1 construct: signal peptide removed; pET-28 or pFO4, HisTrap purified; formylglycine sulfatase (Ser83 is formylglycine in mature enzyme)

[2] = biological target: T2, BpGH16C (Bacple_01703) (Phocaeicola plebeius, UniProt B5CYA6); assay: X-ray crystal structure, […] Å, soaked crystal; format: binding; details: inactive mutant; soaked with tetrasaccharide, only a trisaccharide modelled (subsites -1 to -3; Figure 2 legend says disaccharide); pH 7.5
T2 construct: signal peptide removed; pET-28 or pFO4, HisTrap purified; three independent molecules in asymmetric unit of complex
T2 sequence (B5CYA6 entry or part of it E178L): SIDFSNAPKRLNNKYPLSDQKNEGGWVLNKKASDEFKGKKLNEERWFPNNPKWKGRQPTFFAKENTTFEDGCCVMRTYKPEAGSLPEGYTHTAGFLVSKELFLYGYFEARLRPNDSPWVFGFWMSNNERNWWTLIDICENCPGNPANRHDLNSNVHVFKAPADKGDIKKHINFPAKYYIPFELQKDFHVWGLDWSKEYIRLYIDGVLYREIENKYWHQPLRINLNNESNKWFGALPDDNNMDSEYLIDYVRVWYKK

[3] = biological target: T3, BpGH2C (Bacple_01706) (Phocaeicola plebeius, UniProt B5CYA9); assay: 1H NMR after sequential enzyme incubation; format: biochemical; details: substrate made in situ by BpS1_[…] then BpGH29
T3 construct: signal peptide removed; pET-28 or pFO4, HisTrap purified
T3 sequence (B5CYA9 1-1086): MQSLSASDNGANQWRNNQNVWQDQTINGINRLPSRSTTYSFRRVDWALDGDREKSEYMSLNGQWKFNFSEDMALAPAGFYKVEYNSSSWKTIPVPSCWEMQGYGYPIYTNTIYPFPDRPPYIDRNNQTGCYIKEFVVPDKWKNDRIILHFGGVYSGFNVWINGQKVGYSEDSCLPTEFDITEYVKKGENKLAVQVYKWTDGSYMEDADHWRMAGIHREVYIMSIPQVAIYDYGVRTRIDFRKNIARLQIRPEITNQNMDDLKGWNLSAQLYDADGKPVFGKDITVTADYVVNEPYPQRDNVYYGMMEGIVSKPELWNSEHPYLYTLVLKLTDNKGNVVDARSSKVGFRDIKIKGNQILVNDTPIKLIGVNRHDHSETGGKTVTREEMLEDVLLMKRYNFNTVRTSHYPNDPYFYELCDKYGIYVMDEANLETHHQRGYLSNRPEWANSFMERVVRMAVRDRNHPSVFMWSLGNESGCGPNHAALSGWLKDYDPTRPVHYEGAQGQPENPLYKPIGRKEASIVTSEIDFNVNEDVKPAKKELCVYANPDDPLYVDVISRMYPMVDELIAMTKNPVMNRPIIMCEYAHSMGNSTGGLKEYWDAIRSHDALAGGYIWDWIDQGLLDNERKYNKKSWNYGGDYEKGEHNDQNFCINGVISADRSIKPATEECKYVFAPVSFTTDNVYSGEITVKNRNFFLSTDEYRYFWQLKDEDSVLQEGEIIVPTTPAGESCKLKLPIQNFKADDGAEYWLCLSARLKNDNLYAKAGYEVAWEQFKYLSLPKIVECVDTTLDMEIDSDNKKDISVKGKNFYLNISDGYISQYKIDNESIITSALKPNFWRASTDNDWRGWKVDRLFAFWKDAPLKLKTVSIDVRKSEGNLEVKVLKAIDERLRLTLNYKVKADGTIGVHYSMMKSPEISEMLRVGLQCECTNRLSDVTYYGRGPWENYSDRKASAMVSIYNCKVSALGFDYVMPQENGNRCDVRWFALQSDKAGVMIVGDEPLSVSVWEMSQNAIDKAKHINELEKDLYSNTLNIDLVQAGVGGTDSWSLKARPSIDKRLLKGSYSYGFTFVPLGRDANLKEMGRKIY

T1 sequence (B5CYA4 entry or part of it): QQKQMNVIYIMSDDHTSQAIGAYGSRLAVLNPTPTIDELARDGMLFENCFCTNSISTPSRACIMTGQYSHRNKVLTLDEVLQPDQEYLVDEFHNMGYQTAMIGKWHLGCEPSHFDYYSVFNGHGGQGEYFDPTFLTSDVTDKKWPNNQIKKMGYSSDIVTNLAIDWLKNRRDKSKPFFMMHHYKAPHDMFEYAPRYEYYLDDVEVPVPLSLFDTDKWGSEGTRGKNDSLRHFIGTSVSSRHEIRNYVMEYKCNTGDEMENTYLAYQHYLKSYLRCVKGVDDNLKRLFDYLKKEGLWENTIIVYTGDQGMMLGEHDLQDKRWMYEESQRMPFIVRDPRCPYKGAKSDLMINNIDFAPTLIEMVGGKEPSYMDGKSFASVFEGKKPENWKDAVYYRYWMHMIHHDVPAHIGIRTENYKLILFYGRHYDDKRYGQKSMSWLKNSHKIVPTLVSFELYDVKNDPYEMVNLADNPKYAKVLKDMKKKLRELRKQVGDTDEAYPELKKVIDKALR

| SMILES | 1H NMR of products [1] | X-ray crystal structure, 1.8 Å, soaked crystal [2] | 1H NMR after sequential enzyme incubation [3] |
| --- | --- | --- | --- |
| O=S(=O)(O)OC[C@@H]1O[C@@H](O[C@H]2[C@@H](O)[C@@H](CO)O[C@@H](O[C@H]3[C@@H](O)[C@H](O)[C@H](O[C@H]4[C@@H](O)[C@@H](CO)OC(O)[C@@H]4O)O[C@H]3COS(=O)(=O)O)[C@@H]2O)[C@@H](O)[C@H](O)[C@@H]1O (stereo partly drawn) [L-α-6O-sulfate-Gal-(1 → 3)-D-β-Gal-(1 → 4)-L-α-6O-sulfate-Gal-(1 → 3)-D-a/β-Gal] | After desulfation of the tetra-saccharides | we crystallized the E145L inactive mutant with the tetrasaccharide |  |
| O=S(=O)(O)OC[C@@H]1O[C@@H](O[C@H]2[C@@H](O)[C@@H](CO)OC(O)[C@@H]2O)[C@@H](O)[C@H](O)[C@@H]1O[C@@H]1O[C@H](CO)[C@H](O)[C@H](O)[C@H]1O (stereo partly drawn) [trisaccharide with non-methylated D-galactose at the non-reducing end] |  |  | methylated or non-methylated D-galactose residue located at the non-reducing end of the trisaccharide was cleaved |

Source: PMC12316285, “The porphyran degradation system is complete, phylogenetically and geographically diverse across the gut microbiota of East Asian populations” (PLOS One, 2025)
